Source: US20260232767A1, “INTERLEUKIN-23 RECEPTOR ANTAGONIST PEPTIDES FOR USE IN THE TREATMENT OF PSORIASIS” (Janssen Pharmaceutica NV, priority 2023, published 2026)

Tested on: subjects with moderate-to-severe plaque psoriasis
Test: Hematology and chemistry laboratory values by CTCAE grade
Format: in vivo, human
Details: through Week 56
Text: The proportion of participants who discontinued study intervention due to one or more AEs was low (n=4). All events were singular in nature with no apparent dose-dependent increase (Table 48 and Table 52). The number of participants with abnormal hematology and chemistry laboratory values with CTCAE toxicity grade≥3 were low through the end of the study (Table 43 through Table 46). There was no apparent dose-dependent increase in laboratory abnormality occurrences.

[1] = Placebo → 100 mg QD after crossover

Compound: CC(=O)NCCCC[C@@H]1NC(=O)[C@H](Cc2c[nH]c3c(C)cccc23)NC(=O)[C@H]([C@@H](C)O)NC(=O)[C@H](CC(N)=O)NC(=O)[C@@H](NC(C)=O)C(C)(C)SSC(C)(C)[C@@H](C(=O)N[C@@H](Cc2ccc(OCCN)cc2)C(=O)N[C@@H](Cc2ccc3ccccc3c2)C(=O)NC2(C(=O)N[C@@H](CCC(=O)O)C(=O)N[C@@H](CC(N)=O)C(=O)N[C@@H](Cc3cccnc3)C(=O)N(C)CC(N)=O)CCOCC2)NC1=O [IL-23 receptor antagonist peptide, Ac-[Pen]*-N-T-[W(7-Me)]-[Lys(Ac)]-[Pen]*-Phe[4-(2-aminoethoxy)]-[2-Nal]-[THP]-E-N-[3-Pal]-Sarc-NH2 (*[Pen]-[Pen]* formdisulfidebond)]
- WBC (×10^9/L) (increased): subjects with Grade 2 (100 mg QD): 0
- WBC (×10^9/L) (increased): subjects with Grade 3 (100 mg QD): 0
- WBC (×10^9/L) (increased): subjects with Grade 4 (100 mg QD): 0
- WBC (×10^9/L) (increased): subjects with postbaseline maximum toxicity grade >0 (100 mg QD): 0
- Hemoglobin (g/L) (decreased): subjects with Grade 3 (Combined Formula (I) regimens): 0
- Hemoglobin (g/L) (decreased): subjects with Grade 4 (Combined Formula (I) regimens): 0
- Hemoglobin (g/L) (increased): subjects with Grade 2 (Combined Formula (I) regimens): 0
- Hemoglobin (g/L) (increased): subjects with Grade 3 (Combined Formula (I) regimens): 0
- Hemoglobin (g/L) (increased): subjects with Grade 4 (Combined Formula (I) regimens): 0
- Lymphocytes (×10^9/L) (decreased): subjects with Grade 3 (Combined Formula (I) regimens): 0
- Lymphocytes (×10^9/L) (decreased): subjects with Grade 4 (Combined Formula (I) regimens): 0
- Lymphocytes (×10^9/L) (increased): subjects with Grade 1 (Combined Formula (I) regimens): 0
- Lymphocytes (×10^9/L) (increased): subjects with Grade 3 (Combined Formula (I) regimens): 0
- Lymphocytes (×10^9/L) (increased): subjects with Grade 4 (Combined Formula (I) regimens): 0
- Neutrophils (×10^9/L) (decreased): subjects with Grade 3 (Combined Formula (I) regimens): 0
- Neutrophils (×10^9/L) (decreased): subjects with Grade 4 (Combined Formula (I) regimens): 0
- Platelets (×10^9/L) (decreased): subjects with Grade 2 (Combined Formula (I) regimens): 0
- Platelets (×10^9/L) (decreased): subjects with Grade 3 (Combined Formula (I) regimens): 0
- Platelets (×10^9/L) (decreased): subjects with Grade 4 (Combined Formula (I) regimens): 0
- WBC (×10^9/L) (decreased): subjects with Grade 3 (Combined Formula (I) regimens): 0
- WBC (×10^9/L) (decreased): subjects with Grade 4 (Combined Formula (I) regimens): 0
- WBC (×10^9/L) (increased): subjects with Grade 1 (Combined Formula (I) regimens): 0
- WBC (×10^9/L) (increased): subjects with Grade 2 (Combined Formula (I) regimens): 0
- WBC (×10^9/L) (increased): subjects with Grade 3 (Combined Formula (I) regimens): 0
- WBC (×10^9/L) (increased): subjects with Grade 4 (Combined Formula (I) regimens): 0
- WBC (×10^9/L) (increased): subjects with postbaseline maximum toxicity grade >0 (Combined Formula (I) regimens): 0
- Alanine Aminotransferase (increased): Subjects with Grade 4 (Combined): 0
- Albumin (decreased): Subjects with Grade 1 (Combined): 0
- Albumin (decreased): Subjects with Grade 2 (Combined): 0
- Albumin (decreased): Subjects with Grade 3 (Combined): 0
- Albumin (decreased): Subjects with Grade 4 (Combined): 0
- Albumin (decreased): Subjects with postbaseline maximum toxicity grade >0 (Combined): 0
- Alkaline Phosphatase (increased): Subjects with Grade 2 (Combined): 0
- Alkaline Phosphatase (increased): Subjects with Grade 3 (Combined): 0
- Alkaline Phosphatase (increased): Subjects with Grade 4 (Combined): 0
- Aspartate Aminotransferase (increased): Subjects with Grade 4 (Combined): 0
- Calcium corrected (decreased): Subjects with Grade 3 (Combined): 0
- Calcium corrected (decreased): Subjects with Grade 4 (Combined): 0
- Calcium corrected (increased): Subjects with Grade 2 (Combined): 0
- Calcium corrected (increased): Subjects with Grade 3 (Combined): 0
- Calcium corrected (increased): Subjects with Grade 4 (Combined): 0
- Cholesterol (increased): Subjects with Grade 3 (Combined): 0
- Cholesterol (increased): Subjects with Grade 4 (Combined): 0
- Creatinine (increased): Subjects with Grade 3 (Combined): 0
- Creatinine (increased): Subjects with Grade 4 (Combined): 0
- Gamma Glutamyl Transferase (increased): Subjects with Grade 3 (Combined): 0
- Gamma Glutamyl Transferase (increased): Subjects with Grade 4 (Combined): 0
- Glucose (decreased): Subjects with Grade 3 (Combined): 0
- Glucose (decreased): Subjects with Grade 4 (Combined): 0
- Magnesium (decreased): Subjects with Grade 2 (Combined): 0
- Magnesium (decreased): Subjects with Grade 3 (Combined): 0
- Magnesium (decreased): Subjects with Grade 4 (Combined): 0
- Magnesium (increased): Subjects with Grade 2 (Combined): 0
- Magnesium (increased): Subjects with Grade 3 (Combined): 0
- Magnesium (increased): Subjects with Grade 4 (Combined): 0
- Potassium (decreased): Subjects with Grade 1 (Combined): 0
- Potassium (decreased): Subjects with Grade 3 (Combined): 0
- Potassium (decreased): Subjects with Grade 4 (Combined): 0
- Potassium (increased): Subjects with Grade 4 (Combined): 0
- Sodium (decreased): Subjects with Grade 2 (Combined): 0
- Sodium (decreased): Subjects with Grade 3 (Combined): 0
- Sodium (decreased): Subjects with Grade 4 (Combined): 0
- Sodium (increased): Subjects with Grade 2 (Combined): 0
- Sodium (increased): Subjects with Grade 3 (Combined): 0
- Sodium (increased): Subjects with Grade 4 (Combined): 0
- Total Bilirubin (increased): Subjects with Grade 3 (Combined): 0
- Total Bilirubin (increased): Subjects with Grade 4 (Combined): 0
- Hemoglobin (g/L) (decreased): subjects with Grade 2 [1]: 0
- Hemoglobin (g/L) (decreased): subjects with Grade 3 [1]: 0
- Hemoglobin (g/L) (decreased): subjects with Grade 4 [1]: 0
- Hemoglobin (g/L) (increased): subjects with Grade 2 [1]: 0
- Hemoglobin (g/L) (increased): subjects with Grade 3 [1]: 0
- Hemoglobin (g/L) (increased): subjects with Grade 4 [1]: 0
- Lymphocytes (×10^9/L) (decreased): subjects with Grade 1 [1]: 0
- Lymphocytes (×10^9/L) (decreased): subjects with Grade 3 [1]: 0
- Lymphocytes (×10^9/L) (decreased): subjects with Grade 4 [1]: 0
- Lymphocytes (×10^9/L) (increased): subjects with Grade 1 [1]: 0
- Lymphocytes (×10^9/L) (increased): subjects with Grade 2 [1]: 0
- Lymphocytes (×10^9/L) (increased): subjects with Grade 3 [1]: 0
- Lymphocytes (×10^9/L) (increased): subjects with Grade 4 [1]: 0
- Lymphocytes (×10^9/L) (increased): subjects with postbaseline maximum toxicity grade >0 [1]: 0
- Platelets (×10^9/L) (decreased): subjects with Grade 2 [1]: 0
- Platelets (×10^9/L) (decreased): subjects with Grade 3 [1]: 0
- Platelets (×10^9/L) (decreased): subjects with Grade 4 [1]: 0
- WBC (×10^9/L) (decreased): subjects with Grade 2 [1]: 0
- WBC (×10^9/L) (decreased): subjects with Grade 3 [1]: 0
- WBC (×10^9/L) (decreased): subjects with Grade 4 [1]: 0
- WBC (×10^9/L) (increased): subjects with Grade 1 [1]: 0
- WBC (×10^9/L) (increased): subjects with Grade 2 [1]: 0
- WBC (×10^9/L) (increased): subjects with Grade 3 [1]: 0
- WBC (×10^9/L) (increased): subjects with Grade 4 [1]: 0
- WBC (×10^9/L) (increased): subjects with postbaseline maximum toxicity grade >0 [1]: 0
- Alanine Aminotransferase (increased): Subjects with Grade 1 (Placebo → 100 mg QD): 10
- Alanine Aminotransferase (increased): Subjects with Grade 3 (Placebo → 100 mg QD): 0
- Alanine Aminotransferase (increased): Subjects with Grade 4 (Placebo → 100 mg QD): 0
- Albumin (decreased): Subjects with Grade 1 (Placebo → 100 mg QD): 0
- Albumin (decreased): Subjects with Grade 2 (Placebo → 100 mg QD): 0
- Albumin (decreased): Subjects with Grade 3 (Placebo → 100 mg QD): 0
- Albumin (decreased): Subjects with Grade 4 (Placebo → 100 mg QD): 0
- Albumin (decreased): Subjects with postbaseline maximum toxicity grade >0 (Placebo → 100 mg QD): 0
- Alkaline Phosphatase (increased): Subjects with Grade 2 (Placebo → 100 mg QD): 0
- Alkaline Phosphatase (increased): Subjects with Grade 3 (Placebo → 100 mg QD): 0
- Alkaline Phosphatase (increased): Subjects with Grade 4 (Placebo → 100 mg QD): 0
- Aspartate Aminotransferase (increased): Subjects with Grade 4 (Placebo → 100 mg QD): 0
- Aspartate Aminotransferase (increased): Subjects with postbaseline maximum toxicity grade >0 (Placebo → 100 mg QD): 9
- Calcium corrected (decreased): Subjects with Grade 3 (Placebo → 100 mg QD): 0
- Calcium corrected (decreased): Subjects with Grade 4 (Placebo → 100 mg QD): 0
- Calcium corrected (increased): Subjects with Grade 1 (Placebo → 100 mg QD): 0
- Calcium corrected (increased): Subjects with Grade 2 (Placebo → 100 mg QD): 0
- Calcium corrected (increased): Subjects with Grade 3 (Placebo → 100 mg QD): 0
- Calcium corrected (increased): Subjects with Grade 4 (Placebo → 100 mg QD): 0
- Calcium corrected (increased): Subjects with postbaseline maximum toxicity grade >0 (Placebo → 100 mg QD): 0
- Cholesterol (increased): Subjects with Grade 1 (Placebo → 100 mg QD): 0
- Cholesterol (increased): Subjects with Grade 2 (Placebo → 100 mg QD): 0
- Cholesterol (increased): Subjects with Grade 3 (Placebo → 100 mg QD): 0
- Cholesterol (increased): Subjects with Grade 4 (Placebo → 100 mg QD): 0
- Cholesterol (increased): Subjects with postbaseline maximum toxicity grade >0 (Placebo → 100 mg QD): 0
- Creatine Kinase (increased): Subjects with Grade 2 (Placebo → 100 mg QD): 0
- Creatine Kinase (increased): Subjects with Grade 4 (Placebo → 100 mg QD): 0
- Creatinine (increased): Subjects with Grade 2 (Placebo → 100 mg QD): 0
- Creatinine (increased): Subjects with Grade 3 (Placebo → 100 mg QD): 0
- Creatinine (increased): Subjects with Grade 4 (Placebo → 100 mg QD): 0
- Gamma Glutamyl Transferase (increased): Subjects with Grade 3 (Placebo → 100 mg QD): 0
- Gamma Glutamyl Transferase (increased): Subjects with Grade 4 (Placebo → 100 mg QD): 0
- Glucose (decreased): Subjects with Grade 3 (Placebo → 100 mg QD): 0
- Glucose (decreased): Subjects with Grade 4 (Placebo → 100 mg QD): 0
- Magnesium (decreased): Subjects with Grade 2 (Placebo → 100 mg QD): 0
- Magnesium (decreased): Subjects with Grade 3 (Placebo → 100 mg QD): 0
- Magnesium (decreased): Subjects with Grade 4 (Placebo → 100 mg QD): 0
- Magnesium (increased): Subjects with Grade 2 (Placebo → 100 mg QD): 0
- Magnesium (increased): Subjects with Grade 3 (Placebo → 100 mg QD): 0
- Magnesium (increased): Subjects with Grade 4 (Placebo → 100 mg QD): 0
- Potassium (decreased): Subjects with Grade 1 (Placebo → 100 mg QD): 0
- Potassium (decreased): Subjects with Grade 3 (Placebo → 100 mg QD): 0
- Potassium (decreased): Subjects with Grade 4 (Placebo → 100 mg QD): 0
- Potassium (increased): Subjects with Grade 3 (Placebo → 100 mg QD): 0
- Potassium (increased): Subjects with Grade 4 (Placebo → 100 mg QD): 0
- Sodium (decreased): Subjects with Grade 1 (Placebo → 100 mg QD): 0
- Sodium (decreased): Subjects with Grade 2 (Placebo → 100 mg QD): 0
- Sodium (decreased): Subjects with Grade 3 (Placebo → 100 mg QD): 0
- Sodium (decreased): Subjects with Grade 4 (Placebo → 100 mg QD): 0
- Sodium (decreased): Subjects with postbaseline maximum toxicity grade >0 (Placebo → 100 mg QD): 0
- Sodium (increased): Subjects with Grade 1 (Placebo → 100 mg QD): 0
- Sodium (increased): Subjects with Grade 2 (Placebo → 100 mg QD): 0
- Sodium (increased): Subjects with Grade 3 (Placebo → 100 mg QD): 0
- Sodium (increased): Subjects with Grade 4 (Placebo → 100 mg QD): 0
- Sodium (increased): Subjects with postbaseline maximum toxicity grade >0 (Placebo → 100 mg QD): 0
- Total Bilirubin (increased): Subjects with Grade 2 (Placebo → 100 mg QD): 0
- Total Bilirubin (increased): Subjects with Grade 3 (Placebo → 100 mg QD): 0
- Total Bilirubin (increased): Subjects with Grade 4 (Placebo → 100 mg QD): 0
- Triglycerides (increased): Subjects with Grade 3 (Placebo → 100 mg QD): 0
- Triglycerides (increased): Subjects with Grade 4 (Placebo → 100 mg QD): 0
